# Experiments:
# [1] = test system: F-actin; assay: FITC-phalloidin staining of F-actin and flow cytometry in resting CD4 T cells; format: cell-based, human
# Procedure: Cells were stimulated with HIV-1 or gp120 IIIB (Microbix Biosystems Inc. Toronto, Ontario). F-actin staining using FITC-labeled phalloidin (Sigma, St. Louis, Mo.) was carried out according to the manufacture's recommendation with minor modifications. Briefly, each staining was carried out by using 10^6 cells. Cells were pelleted, fixed and permeabilized with cytoperm/cytofix (BD biosciences, San Diego, Calif.) for 20 min on ice, followed by stained with 5 μl of 0.3 uM FITC-labeled phalloidin for 30 min at 4° C. After wash, cells were resuspended in 1% paraformaldehyde and analyzed on FACSCalibur (BD Biosciences, San Jose, Calif.)
# [2] = test system: HIV-1; assay: HIV-1 latent infection of resting CD4 T cells, viral replication assay (p24 ELISA) after anti-CD3/CD28 activation; format: cell-based, HIV-1NL4-3; conditions: for HIV replication in resting T cells: 5 minutes before infection
# Procedure: Virus stocks of the HIV-1NL4-3 (Adachi et al. J Virol 59(2), 284-91 (1986)) were prepared by transfection of HeLa cells with cloned proviral DNA as described in Wu and Marsh (2001). Supernatant was harvested at 48 hours, and filtered through a 0.45 μm nitrocellulose membrane. Virus titer (TCID50) was measured by infection of a Rev-CEM indicator cell line which was constructed through stable integration of a Rev-dependent GFP expression lentiviral vector into CEM-SS. […] For infection of resting CD4 T cells, viruses were first titrated to determine minimal levels detectable by p24 ELISA in replication assays described below. Unless specified, for most replication assays, 10^3.5 to 10^4.5 TCID50 units of HIV-1 were used to infect 10^6 cells. For infection procedure, CD4 T cells were incubated with the virus for 2 hours, then washed twice with medium to remove unbound virus. Infected cells were resuspended into fresh RPMI 1604 medium supplemented with 10% heat-inactivated fetal bovine serum, penicillin (50 U/ml) and streptomycin (50 μg/ml) at a density of 10^6 per ml and incubated for 5 days without stimulation. Cells were activated at day 5 with anti-CD3/CD28 magnetic beads at 4 beads per cells. For viral replication assay, 10% of infected cells were taken at 1, 3, 5, 6, 7, 8, 9 days post infection. Cells were pelleted and the supernatant was saved for p24 ELISA. Levels of p24 in the supernatant were measured by using Coulter HIV-1 p24 Assay Kit (Beckman Coulter, Inc. Miami, Fla.). Plates were kinetically read using ELx808 automatic microplate reader (Bio-Tek Instruments, Inc. Winooski, Vt.) at 630 nm.
# Resting CD4 T cells were treated with pertussis toxin (Sigma, St. Louis, Mo.) at a final concentration of 100 ng/ml for 2 hours, then infected with HIV-1. Following infection, cells were washed 2 to 3 times to remove cell-free virus and the inhibitor. Cells were treated with Jasplakinolide (Molecular Probes, Eugene, Oreg.) for 1 to 2 hours or Latrunculin A (Biomol, Plymouth Meeting, Pa.) for 5 minutes at various concentrations, washed twice with medium, then infected with HIV-1. Following infection, cells were washed twice to remove cell free virus. Cells were treated with 200 nM of Staurosporine (Biomol, Plymouth Meeting, Pa.) for 2 hours, then infected with HIV-1. Following infection, cells were washed twice to remove cell-free virus and the inhibitor.
# Resting CD4 T cells were treated with S3 or Q104 for I to 2 hours, then infected with HIV-1. Following infection, cells were washed 2 to 3 times to remove cell-free virus and the peptides.
# Effects of Jas on LFA-1 activation also were tested. Jas treated or untreated resting T cells were activated by anti-CD3/CD28 bead and stained with human ICAM-1/Fc chimera and analyzed by flow cytometer. The effects of Jas on IL-2 secretion also were measured. […] Cells were treated with Jas for 2 hours, washed, infected with HIV-1 for 5 days, then activated by anti-CD3/CD28 bead. […] Following infection, cellular DNA was PCR amplified for viral late DNA and β-actin pseudogene. Cells were pre-activated with PHA plus IL-2, then treated and infected as in FIG. 3A. […] CEM-SS cell were treated and infected as in FIG. 3A.
# [3] = test system: cofilin; assay: Cofilin and phospho-cofilin western blot in resting CD4 T cells; format: cell-based, human
# Procedure: For activation of resting CD4 T cells with PHA (3 μg/ml) (Sigma, St. Louis, Mo.) plus IL-2 (100 U/ml) (Roche Applied Science, Indianapolis, Ind.), cells were cultured in the presence of these agents for 1 day.
# Briefly, 10^6 of CD4 T cells were lysed in NuPAGE LDS Sample Buffer (Invitrogen, Carlsbad, Calif.) followed by sonication. Samples were heated at 70° C. for 10 minutes before loading, then separated by SDS-PAGE and transferred onto nitrocellulose membranes (Invitrogen, Carlsbad, Calif.). The membranes were washed in TBS for 5 minutes and then blocked for 30 minutes at room temperature with Starting Block blocking buffer (Pierce, Rockford, Ill.). The blots were incubated with either a rabbit anti-cofilin antibody (1:1000 dilution) (Cell Signaling, Danvers, Mass.) or a rabbit anti-phospho-cofilin (ser3) antibody (1:1000 dilution) (Cell Signaling, Danvers, Mass.) diluted in 5% BSA-TBST and rocked at room temperature for 1 hour. The blots were washed three times for 15 minutes each and then incubated with a goat anti-rabbit horseradish peroxidase-conjugated antibodies (KPL, Inc. Gaithersburg, Md.) diluted in 2.5% skim milk-TBST (1:1000) for 1 hour. […] Images were captured with a CCD camera (Fluor Chem 9900 Imaging Systems) (Alpha Innotech, San Leandro, Calif.) and analyzed and processed by NIH-Image Version 163.
# [4] = test system: IL-2 secretion; assay: IL-2 ELISA of cell culture supernatant after T cell activation; format: cell-based, human; conditions: 200 nM, treated, incubated and activated
# Procedure: IL-2 release into cell culture supernatant was detected by a human IL-2 ELISA development kit (PeproTech, Rocky Hill, N.J.) according to the manufacture's instruction. Briefly, each well of a plate was coated with 100 μl of capture antibody (1 μg/ml) and incubated overnight at room temperature, then washed and blocked with 300 μl of blocking solution for one hour at room temperature. Samples in plates were incubated for 1 hour at 37° C., then washed and incubated with 100 μl of detection antibody (0.5 μg/ml) for 1 hour at 37° C. Plates were washed and incubated with 100 μl of the avidin-peroxidase conjugate (1:2000 dilution) for 30 minutes at room temperature followed by washing and incubation with 100 μl of Tetramethylbenzidine (TMB) substrate buffer. Plates were kinetically read using ELx808 automatic microplate reader (Bio-Tek Instruments, Inc. Winooski, Vt.) at 630 nm.
# [5] = target: T1, LIMK1 (Homo sapiens, UniProt P53667); assay: In vitro LIMK1 kinase assay with GST-tagged recombinant human cofilin; format: biochemical
# T1 construct: purchased Upstate Biotechnologies, Lake Placid, N.Y
# Procedure: LIMK1 Kinase assays were performed using purified LIMK1 and GST-tagged recombinant human cofilin (Upstate Biotechnologies, Lake Placid, N.Y.) according to the manufacture's recommendation with minor modifications. Briefly, 18 μg of recombinant cofilin was incubated in 1× Kinase reaction buffer ([…], pH7.0, 200 μM EDTA) in the presence or absence of Staurosporine (200 nM) or the S3, Q104 peptides. LIMK1 was serially diluted in dilution buffer (20 mM MOPS-NaOH pH 7.0, 1 mM EDTA, 0.01% Brij-35, 5% glycerol, 0.1% 2-ME, 1 mg/ml BSA), then added into the reaction along with the ATP buffer (10 mM Magnesium Acetate, 100 μM ATP). The reaction was incubated for 15 minutes at 30° C. with constant agitation. The reaction was stopped by adding 25% (V/V) of 4×LDS sample buffer for SDS-PAGE and heated for 10 minutes at 70° C. Cofilin phosphorylation was analyzed by SDS-PAGE and western blotting using a rabbi anti-phospho-cofilin (ser3) antibody (Cell Signaling, Danvers, Mass.) as described in Example 10.
# [6] = test system: HIV; conditions: Doranz et al. 1999; cited from earlier work
# [7] = 200 nM added during T cell activation at day 5
# T1 sequence (P53667 whole entry, species assumed): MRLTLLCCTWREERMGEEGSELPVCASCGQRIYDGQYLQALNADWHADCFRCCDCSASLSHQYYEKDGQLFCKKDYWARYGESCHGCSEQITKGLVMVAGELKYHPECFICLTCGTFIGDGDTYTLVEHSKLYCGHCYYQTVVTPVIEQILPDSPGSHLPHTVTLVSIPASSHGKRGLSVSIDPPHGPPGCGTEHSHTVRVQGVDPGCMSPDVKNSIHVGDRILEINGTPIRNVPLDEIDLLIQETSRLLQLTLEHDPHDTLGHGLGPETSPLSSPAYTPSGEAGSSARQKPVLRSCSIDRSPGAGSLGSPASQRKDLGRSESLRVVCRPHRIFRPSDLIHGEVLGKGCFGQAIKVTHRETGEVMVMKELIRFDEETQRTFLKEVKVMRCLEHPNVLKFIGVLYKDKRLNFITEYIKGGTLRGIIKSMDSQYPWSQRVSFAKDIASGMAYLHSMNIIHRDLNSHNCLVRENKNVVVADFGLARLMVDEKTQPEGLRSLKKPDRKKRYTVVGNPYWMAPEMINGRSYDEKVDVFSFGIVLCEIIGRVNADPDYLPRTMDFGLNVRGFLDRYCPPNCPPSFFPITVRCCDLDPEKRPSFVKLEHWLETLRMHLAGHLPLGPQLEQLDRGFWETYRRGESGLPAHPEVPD
compound,measurement,setting,value
"C/C1=C/C(=O)O[C@@H]2C[C@@H](CC[C@H](C)/C=C\C=C\CC1)O[C@@](O)([C@@H]1CSC(=O)N1)C2 [Lat-A, Latrunculin A]",actin depolymerization,"[1]; 25 nM, 5 min",actin depolymerization to an extent similar to that induced by HIV-1
same,actin depolymerization,"[1]; 2.5 μM to 250 nM, 5 min",dramatic actin depolymerization
same,"HIV replication in resting T cells, treatment before vs after infection","[2]; 25 nM, 5 minutes",enhancement was seen only in cells pretreated with Lat-A prior to infection
same,HIV replication in resting T cells,[2]; 25 nM,Enhanced HIV replication
same,HIV replication in resting T cells,[2]; 250 nM,donor-dependent variations from enhancement to inhibition
same,HIV replication in resting T cells,[2]; 2.5 μM,inhibited viral replication in all donors
CN[C@@H]1C[C@H]2O[C@@](C)([C@@H]1OC)n1c3ccccc3c3c4c(c5c6ccccc6n2c5c31)C(=O)NC4 [staurosporine],cofilin phosphorylation in resting CD4 T cells,"[3]; 200 nM, no stimulation",gradual dephosphorylation and activation of cofilin
same,actin depolymerization,[1]; 200 nM,actin depolymerization also was observed
same,IL-2 secretion,[4],slight inhibition
same,LIMK1 inhibition compared with S3 peptide,[5]; 200 nM,much stronger
same,phosphorylation of cofilin by LIMK1,[5]; 200 nM,directly inhibited
same,HIV-1 replication,[2]; [7],completely abolished HIV-1 replication
same,T cell activation,[2]; [7],inhibited T cell activation
same,HIV replication in resting CD4 T cells,[2]; 200 nM briefly before infection,dramatic enhancement
"S3: Synthetic peptide MASGVAVSDGVIKVFN (SEQ ID NO: 3), N-terminal 16 amino acids of human cofilin",cofilin phosphorylation by LIMK1,[5]; peptide,inhibited cofilin phosphorylation
same,viral replication in resting CD4 T cells,"[2]; pre-treated 2 hours, then infected",enhanced viral replication
SDF-1: the natural ligand for CXCR4,F-actin change,[1]; 50 ng/ml,rapid actin polymerization
pertussis toxin [P.T],viral replication in CXCR4 transfected U87-MG cells,[6],did not affect viral replication
same,inhibition of HIV-1 induced cofilin activation,"[3]; pretreated, then infected with HIV-1",Complete inhibition
same,inhibition of viral induced actin depolymerization,"[1]; 100 ng/ml for 2 hours, then HIV-1",completely inhibited
same,viral replication in resting T cells,[2]; 100 ng/ml for 2 hours before infection,inhibited viral replication

# Reference: patent US7662547B2, “Compositions and methods for detecting and treating HIV infections” (priority 2006, dated 2010)
